Patent publication US20100048498A1, “STABLE NON-DIHYDRATE AZITHROMYCIN ORAL SUSPENSIONS” (priority 2004, published 2010)

What was measured:
Format in all cases: physicochemical
[1] = Stability of non-dihydrate azithromycin in suspension (POS formulation II or bulk drug in water); SS-NMR quantification of form A
Method: The stability of various forms of non-dihydrate azithromycin, in water and in flavored oral suspensions, was evaluated. Specifically, non-dihydrate azithromycin forms G, M, N, F and J were separately used in POS formulation II. These POS formulations were constituted by mixing with 18 mls of water. The suspensions were then stored for 1, 5 and 10 days at either 5° C. or 30° C. Suspensions of bulk azithromycin forms G, M, N, F and J were also constituted with 18 mls of water and stored under the same conditions.
Upon conclusion of the storage time period the suspensions were filtered and suspended solids collected as described previously.

[2] = Effect of cyclodextrins on non-dihydrate azithromycin form conversion in constituted POS formulation II; conditions: for % Form A: 18 mls water
Method: The effect of adding a complexing agent such as cyclodextrin on the stability of non-dihydrate azithromycin forms G, M and F against conversion in a constituted POS formulation were evaluated.
Forms G, M and F of azithromycin were formulated into POS formulation II. Various cyclodextrins were added to the POS formulation II and the resulting samples were constituted with 18 mls of water. The suspensions were then stored for 24 hours at room temperature. At the end of the storage time, the suspensions were filtered and the recovered solids were weighed and analyzed by SS-NMR to quantify the presence of azithromycin dihydrate (form A). The control samples were formulated into formulation II with non-dihydrate azithromycin form G, M and F without cyclodextrins and were constituted with water, stored, filtered and analyzed identically to the cyclodextrin samples described above. A control, which had no cyclodextrin was run with each series of experiments. The SS-NMR data are presented in Tables 10, 11, 12 and the results are given as weight percent (% wt), of the recovered azithromycin sample.

[3] = Effects of flavoring components upon azithromycin form F conversion in constituted POS; conditions: room temperature
Description: POS formulation II was constituted with water and stored identically to serve as a control for this experiment.

[4] = Bulk Drug in 18 mls water, 5° C., Day 1
[5] = Bulk Drug in 18 mls water, 5° C., Day 10
[6] = Bulk Drug in 18 mls water, 30° C., Day 1
[7] = Bulk Drug in 18 mls water, 30° C., Day 10
[8] = Formulation II constituted with 18 mls water, 5° C., Day 1
[9] = Formulation II constituted with 18 mls water, 5° C., Day 10
[10] = Formulation II constituted with 18 mls water, 30° C., Day 1
[11] = Formulation II constituted with 18 mls water, 30° C., Day 10
[12] = POS Formulation II + Hydroxypropyl β-cyclodextrin 11.1 % w/w, 24 hours room temperature (Tables 11, 12)
[13] = POS Formulation II, no cyclodextrin (Control), 24 hours room temperature (Tables 11, 12)

Structure (SMILES)	% A (azithromycin dihydrate, form A, of recovered azithromycin) [1, 4]	% A (azithromycin dihydrate, form A, of recovered azithromycin) [1, 5]	% A (azithromycin dihydrate, form A, of recovered azithromycin) [1, 6]	% A (azithromycin dihydrate, form A, of recovered azithromycin) [1, 7]	% A (azithromycin dihydrate, form A, of recovered azithromycin) [1, 8]	% A (azithromycin dihydrate, form A, of recovered azithromycin) [1, 9]	% A (azithromycin dihydrate, form A, of recovered azithromycin) [1, 10]	% A (azithromycin dihydrate, form A, of recovered azithromycin) [1, 11]	% Form A [2, 12]	% Form A [2, 13]	other results
CCC1OC(=O)C(C)C(O[C@H]2C[C@@](C)(OC)[C@@H](O)C(C)O2)C(C)[C@@H](OC2OC(C)CC(N(C)C)[C@H]2O)[C@@](C)(O)C[C@@H](C)CN(C)[C@H](C)[C@@H](O)[C@]1(C)O (some centres unmarked) [Form M, azithromycin monohydrate hemi-isopropanol solvate]	0%	0%	0%	0%	23%	40%	28%	62%	0.0%	71.6%	% A (azithromycin dihydrate, form A, of recovered azithromycin) ([1]; Bulk Drug in 18 mls water, 5° C., Day 5): 0%; % A (azithromycin dihydrate, form A, of recovered azithromycin) ([1]; Bulk Drug in 18 mls water, 30° C., Day 5): 0%; % A (azithromycin dihydrate, form A, of recovered azithromycin) ([1]; Formulation II constituted with 18 mls water, 5° C., Day 5): 38%; % A (azithromycin dihydrate, form A, of recovered azithromycin) ([1]; Formulation II constituted with 18 mls water, 30° C., Day 5): 36%; % Form A ([2]; POS Formulation II + Hydroxypropyl β-cyclodextrin 11.1 % w/w, 24 hours room temperature (Tables 11, 12), listed as form M): no conversion; % Form A ([2]; POS Formulation II + β-cyclodextrin 1.2 % w/w, 24 hours room temperature (Table 12)): 0.9%; % Form A ([2]; POS Formulation II + β-cyclodextrin 1.2 % w/w, 24 hours room temperature (Table 12), listed as form M): very small amount of conversion; % Form A ([2]; POS Formulation II + γ-cyclodextrin 1.2 % w/w, 24 hours room temperature (Table 12)): 29.9%
CCC1OC(=O)C(C)C(O[C@H]2C[C@@](C)(OC)[C@@H](O)C(C)O2)C(C)[C@@H](OC2OC(C)CC(N(C)C)[C@H]2O)[C@@](C)(O)C[C@@H](C)CN(C)[C@H](C)[C@@H](O)[C@]1(C)O (some centres unmarked) [Form F, azithromycin monohydrate hemi-ethanol solvate]	0%	0%	0%	0%	6%	27%	19%	31%	0.0%	74.6%	% F (SS-NMR Evaluation after 24 hrs constitution) ([3]; Formulation I constituted with 18 mL 0.0577 mg/ml benzaldehyde): 0%; % F (SS-NMR Evaluation after 24 hrs constitution) ([3]; Formulation I constituted with 18 mL 0.922 mg/ml 3-methyl-butyl acetate + 0.0577 mg/ml benzaldehyde): 0%; % F (SS-NMR Evaluation after 24 hrs constitution) ([3]; Formulation I constituted with 18 mL 0.922 mg/ml 3-methyl-butyl acetate): 0%; % F (SS-NMR Evaluation after 24 hrs constitution) ([3]; Formulation I constituted with 18 mL 1.666 mg/ml 3-methyl-butyl acetate): 0%; % F (SS-NMR Evaluation after 24 hrs constitution) ([3]; Formulation II constituted with 18 mL Water): 0%; % Form A ([2]; POS Formulation II + Sulfobutylether β-cyclodextrin 11.1 % w/w, 24 hours room temperature (Table 11)): 0.0%; % Form A ([2]; POS Formulation II + α-cyclodextrin 1.2 % w/w, 24 hours room temperature (Table 11)): 0.0%; conversion to form A ([2]; POS Formulation II when cyclodextrins were present, 24 hours room temperature): no conversion
CCC1OC(=O)C(C)C(O[C@H]2C[C@@](C)(OC)[C@@H](O)C(C)O2)C(C)[C@@H](OC2OC(C)CC(N(C)C)[C@H]2O)[C@@](C)(O)C[C@@H](C)CN(C)[C@H](C)[C@@H](O)[C@]1(C)O (some centres unmarked) [Form J, azithromycin monohydrate hemi-n-propanol solvate]	0%	0%	0%	0%	0%	0%	0%	0%	–	–	–
